Key:
Format in all cases: functional
Details in all cases: Homo sapiens
SF-268 = assay: Growth inhibition against SF-268 cancer cell line using SRB protein cytotoxicity assay
SNB-75 = assay: Growth inhibition against SNB-75 (CNS cancer) cell line using SRB protein cytotoxicity assay
NCI/ADR-RES = assay: Growth inhibition against NCI/ADR-RES (breast cancer) cell line using SRB protein cytotoxicity assay
IGROV-1 = assay: Growth inhibition against IGROVI (ovarian cancer) cell line using SRB protein cytotoxicity assay
KM12 = assay: Growth inhibition against KM12 (colon cancer) cancer cell line using SRB protein cytotoxicity assay

## CCOC(=O)c1cnc2oc3ccc(O)cc3c2c1-c1ccccc1
SF-268
  GI50: 29.7 µM
SNB-75
  GI50: 16.5 µM
NCI/ADR-RES
  GI50: 4.7 µM
IGROV-1
  GI50: 2.5 µM
KM12
  GI50: 5.1 µM

## CCOC(=O)c1cnc2oc3ccc(O)cc3c2c1C
SF-268
  GI50: 69.9 µM
SNB-75
  GI50: 26 µM
NCI/ADR-RES
  GI50: 41 µM
IGROV-1
  GI50: 86 µM
KM12
  GI50: 70.3 µM

## CC(=O)c1cnc2oc3ccc(O)cc3c2c1C
SF-268
  GI50: > 100 µM

## CC(=O)c1cnc2oc3ccc(O)cc3c2c1-c1ccccc1
SF-268
  GI50: 27.7 µM
SNB-75
  GI50: 2.6 µM
NCI/ADR-RES
  GI50: 19.6 µM
IGROV-1
  GI50: 5 µM
KM12
  GI50: 40.8 µM

Reference: ChEMBL document CHEMBL1135041, “Synthesis and first biological evaluation of 1-aza-9-oxafluorenes as novel lead structures for the development of small-sized cytostatics” (2002)
